Measurements as given in patent US8754190B2, “Controlled release from macromolecular conjugates” (Prolynx LLC, priority 2010, dated 2014).

How the values were obtained:
[1] = pH 7.4
[2] = pH 7.4; remark: listed apart in the source
Experimental: Kinetics for release of N-(6-(2,4-dinitrophenyl)aminohexanoyl)-serine from O—(N-(9-fluorenylmethoxycarbonyl-N-phenyl)aminomethyl)-serine in 0.1 M HEPES buffer, 15 mM NaCl, pH 7.40, 37° C. are shown in FIG. 4.

[3] = Release of Nε-2,4-dinitrophenyl-L-lysine from model linker carbamates (β-eliminative cleavage), HPLC; assay type: physicochemical; conditions: after 5 days at 37° C. and pH 7.4; no observable release, below estimated detection limit
Experimental: A series of model linker scaffolds having a range of functional groups as potential pKa modulators (substituted aromatics, ketones, nitriles, sulfones) were designed, prepared and linked via carbamate bonds to Ne-2,4-dinitrophenyl-L-lysine (Ne-DNP-Lys) for evaluation of release rates. DNP-Lys was chosen as the released moiety as it is water soluble and is a strong chromophore to permit HPLC-UV analysis.
The rates of release of Nε-2,4-dinitrophenyl-L-lysine from these compounds were determined at pH 7.4 or pH 8.3, 37° C., by HPLC analysis. Kinetic analyses of the release reactions were performed by HPLC (C18; linear methanol/water+0.5% HOAc gradient) using a UV/vis monitor at 350 nm. The areas under the Lys(DNP) (“P”) and starting material (“S”) peaks were integrated to determine extent of reaction (“R”) as R=P/(S+P). Reaction rates were calculated from the slope the line obtained by linear regression analysis of a plot of ln(1−R) versus time.

[4] = Hydrolysis of carbamate in 50% human serum; assay type: in vitro ADME; conditions: after 1 week at 37° C.
From the text: In general, compared to C—H, a) electron withdrawing groups at the beta position increase the rate; b) alkyl groups at the alpha position increase the rate; and c) aryl moieties at the alpha position decrease the rate.

O=C(O)[C@H](CSCN(C(=O)OCC1c2ccccc2-c2ccccc21)c1ccccc1)Nc1ccc([N+](=O)[O-])cc1[N+](=O)[O-] [Example 11C, S—(N-(9-Fluorenylmethoxycarbonyl-N-Phenylamino)Methyl)N-(2,4-Dinitrophenyl)-Cysteine]
T1/2 of release of N-(2,4-dinitrophenyl)-cysteine [1]: 4.17 days

O=C(CCCCCNc1ccc([N+](=O)[O-])cc1[N+](=O)[O-])N[C@@H](COCN(C(=O)OCC1c2ccccc2-c2ccccc21)c1ccccc1)C(=O)O [Example 11B]
T1/2 of release of N-(6-(2,4-dinitrophenyl)aminohexanoyl)-serine [2]: 16.7 days

O=C(N[C@@H](CCCCNc1ccc([N+](=O)[O-])cc1[N+](=O)[O-])C(=O)O)OCc1ccccc1 [O-benzyl-N—(Nε-2,4-dinitrophenyl-L-lysine)-carbamate]
release of Nε-2,4-dinitrophenyl-L-lysine (cleavage) [3]: < 0.25% | hydrolysis in 50% human serum [4]: no detectable hydrolysis
